This assay deals with T1, CD44 (Homo sapiens, UniProt P16070).
T1 construct: endogenous in cells
Briefly: CD44 shedding induction by synthetic oligosaccharide in a cancer cell. To be noted: electrophoresis (FIG. 9) and CD44 shedding index with the state without stimulation set to 1 (FIG. 10). In kind it is cell-based. How it is done:
FIG. 8 is a flowchart showing the outline of the test method performed in Example 4.
FIG. 9 is a copy of the electrophoresis photograph in which the electrophoresis result of the test performed in Example 4 is shown.
About the compound of the formula (20) and (21) obtained in Example 1, a CD44 shedding induction ability in a cancer cell was evaluated according to the test method shown in FIG. 8.

T1 sequence (P16070 21-742, species assumed): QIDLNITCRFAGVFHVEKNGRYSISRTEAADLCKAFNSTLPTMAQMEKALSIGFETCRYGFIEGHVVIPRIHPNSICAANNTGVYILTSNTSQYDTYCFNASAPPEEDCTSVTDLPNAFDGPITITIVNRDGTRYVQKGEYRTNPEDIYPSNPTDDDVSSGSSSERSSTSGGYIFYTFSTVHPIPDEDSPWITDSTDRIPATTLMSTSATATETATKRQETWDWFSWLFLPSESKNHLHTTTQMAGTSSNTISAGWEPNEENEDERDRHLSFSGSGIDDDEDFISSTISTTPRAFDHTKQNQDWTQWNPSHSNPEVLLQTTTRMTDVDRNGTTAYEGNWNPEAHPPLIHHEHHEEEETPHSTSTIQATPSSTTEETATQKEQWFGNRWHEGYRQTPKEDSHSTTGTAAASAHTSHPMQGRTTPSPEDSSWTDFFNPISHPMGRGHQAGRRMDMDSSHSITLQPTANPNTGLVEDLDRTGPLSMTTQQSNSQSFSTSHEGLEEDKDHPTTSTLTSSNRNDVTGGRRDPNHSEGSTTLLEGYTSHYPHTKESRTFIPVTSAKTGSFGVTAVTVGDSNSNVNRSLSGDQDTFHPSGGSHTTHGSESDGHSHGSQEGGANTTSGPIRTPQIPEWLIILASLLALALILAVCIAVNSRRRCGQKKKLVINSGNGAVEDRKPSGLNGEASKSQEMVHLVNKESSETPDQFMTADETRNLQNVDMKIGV

For “β-D-GalNAc(4,6-di-OSO3Na)-(1->[4]-β-D-GlcA-(1->3)-β-D-GalNAc(4,6-di-OSO3Na)-(1->24)-β-D-GlcA-(1->OMP [compound of the formula (21)]”, the “CD44 shedding induction ability” value was “induced more strongly”.

In the case of “β-D-GalNAc-(1->[4]-β-D-GlcA-(1->3)-β-D-GalNAc-(1->)24)-β-D-GlcA-(1->OMP [compound of the formula (20)]”, the “CD44 shedding induction ability” value is “induced the shedding of a CD44”.

These data come from patent US20070219161A1, “Preparation Process Of Oligoglycosaminoglycan, And Reducing End Glucuronic Acid Type Oligochondroitin Sulfate And Pharmaceutical Composition Comprising The Same” (priority 2004, published 2007).
